Reference: US10012659B2, “Methods for diagnosing iron-related pathologies” (priority 2014, dated 2018)
Marks after values point to notes of the source that are not given here.

Key:
normal individual plasma = assay: Coagulation kinetic analyses and COHF assay (TTG increase after CORM-2); assay type: biochemical, human; settings: CORM-2 100 μM; based on individual, not group mean responses
Method: Plasma was rapidly thawed at 37° C. on the day of experimentation. The final volume for all subsequently described plasma sample mixtures was 359.4 μl. […] Plasma sample mixtures were placed in a disposable cup in a computer-controlled thrombelastograph® hemostasis system (Model 5000, Haemoscope Corp., Niles, Ill., USA), with addition of CaCl2 as the last step to initiate clotting. Data were collected at 37° C. for 15 min. The following elastic modulus-based parameters previously described (Benk et al., Eur J Cardio-Thorac Surg 44:551-558 (2013); Owens Clin Biochem 43:1183-1188 (2010); Balla et al., Antioxid Redox Signal 9:2119-2137 (2007); Nielsen et al., Blood Coagul Fibrinolysis 20:377-380 (2009); Nielsen et al., Blood Coagul Fibrinolysis 22:443-447 (2011); Nielsen et al., Blood Coagul Fibrinolysis 22:756-759 (2011); Nielsen et al., Blood Coagul Fibrinolysis 24:405-410 (2013)) were determined: time to maximum rate of thrombus generation (TMRTG): this is the time interval (min) observed prior to maximum speed of clot growth; maximum rate of thrombus generation (MRTG): this is the maximum velocity of clot growth observed (dynes/cm^2/sec); and total thrombus generation (TTG, dynes/cm^2), the final viscoelastic resistance observed after clot formation. […]

[1] = tested on: fibrin fiber network of healthy platelet rich plasma (PRP); settings: PRP exposed to compound, then thrombin; SEM
Method: SEM-Based Analyses. […] Blood was obtained from three healthy, female subjects after written, informed consent was obtained. […] Their plasma ferritin (range 2.6-3.3 g/L), serum ferritin (range 13-28 ng/ml) and iron saturation of ferritin (range 19-33%) were normal. As noted previously, forty ml of whole blood was obtained, anticoagulated (sodium citrate, 9 parts blood to 1 part 0.105M sodium citrate), and platelet rich plasma (PRP) was generated by centrifugation of blood at 1250×g for 2 min (Nielsen et al., Blood Coagul Fibrinolysis 25:695-702 (2014); Nielsen et al., Blood Coagul Fibrinolysis 25:845-50 (2014)). […]
The cover slips were placed in 0.075 M PBS on a shaker and washed for 20 minutes. […] Once the samples had been coated they were analyzed with a scanning electron microscope (Zeiss ULTRA plus FEG SEM, Carl Zeiss Microscopy GmbH, Jena, Germany).
After visualization of the fibrin networks with SEM, micrographs were obtained at 40,000 times machine magnification. […] One fiber was randomly selected out of every block of the grid, ensuring that fiber measurements were not duplicated, and that fibers were systematically assessed to prevent observer bias (Pretorius Ultrastruct Pathol 35(4):150-154 (2001); Pretorius et al., Blood Coagul Fibrinolysis 22(8):696-700 (2011)). […] From each sample, 50 fibers were measured.

normal pooled plasma [2] = assay: Effect of FeCl3 and deferoxamine chelation on reaction time (R), thrombelastograph; assay type: biochemical, human; settings: FeCl3 10 μM; for reaction time: median (1st, 3rd quartile)
Method: Thrombelastograph-Based Analyses. All thrombelastograph-based experiments were performed at the University of Arizona. Frozen, citrate anticoagulated normal pooled plasma was obtained from a commercial vendor (George King Bio-Medical, Overland Park, Kans., USA) for use in subsequently described experimentation. […] Deferoxamine was obtained from a commercial vendor (Cayman Chemical Company, Ann Arbor, Mich., USA). […] Then, 336 μl of either plasma mixture was placed in a disposable cup in a computer-controlled thrombelastograph® hemostasis system (Model 5000, Haemoscope Corp., Niles, Ill., USA). […] Thus, there were four conditions: no deferoxamine, no FeCl3, (Control), deferoxamine, no FeCl3 (deferoxamine); no deferoxamine, FeCl3 (FeCl3); and finally, FeCl3 followed by deferoxamine (FeCl3+Deferoxamine). There were six replicates per condition. Thereafter, 20 μl of 200 mM CaCl2 was added as the last step to initiate clotting. Data were collected at 37° C. until R was recorded. […] There were six replicates per condition. An aliquot of 340 μl of each of the four conditions was placed into thrombelastographic cups and 20 μl of 200 mM CaCl2 was added to initiate clotting. Data were collected at 37° C. until R was recorded. As R values varied between experiments, and a fixed number of channels were available (n=4), plasma was incubated at room temperature between 45-60 min prior to initiation of coagulation. The third series of experiments was designed to decrease incubation time by increasing temperature and deferoxamine concentration without compromising the ability to detect iron-mediated changes in R values. […] The mixtures were mixed with the disposable pin, and allowed to incubate for 15 min at 37° C. Clotting was initiated by addition of 20 μl of 200 mM CaCl2 and data collected at 37° C. until R was recorded. A total of six replicates of the four experimental conditions were analyzed.

normal pooled plasma [3] = assay: Concentration-response of FeCl3 on reaction time (R), ROTEM delta thromboelastometry; assay type: biochemical, human; settings: 2-10 μM FeCl3
Method: First, a concentration-response relationship of iron concentration and reaction time (R, defined as 2 mm clot strength; this is also known as clotting time in thromboelastometric analyses) was determined. The rationale for using R time was that it is the first indication of the onset of coagulation, is used in both thrombelastographic and thromboelastometric systems, and was anticipated to quickly and easily detect iron-mediated enhancement of coagulation based on previous work. This concentration-response relationship was generated with a ROTEM® delta hemostasis system (Tem Innovations GmbH, Munich, Germany) generously provided by the manufacturer. All disposable cups/pins and reagents were also provided by Tem Innovations. Plasma was rapidly thawed at 37° C. on the day of experimentation. […] After 3 min or more of incubation at room temperature, 320 μl of these iron-exposed plasmas were subsequently placed in a disposable cup, with subsequent addition of 20 μl of 200 mM CaCl2. The complete sample was mixed by pipette once, and the reaction commenced at 37° C. The R values were subsequently recorded.

| SMILES | normal individual increase in TTG secondary to CORM-2 exposure (normal individual plasma) | decrease in average fibrin fiber width vs normal subjects (105±3 nm) [1] | FeCl3-mediated decrease in R values (normal pooled plasma [2]; 45-60 minute incubation) | reduction in R values compared to control plasma values (normal pooled plasma [2]; 3 min incubation series) | reaction time (normal pooled plasma [2]; Fifteen min incubation at 37° C., deferoxamine 2.78 mM) | reaction time (normal pooled plasma [2]; Forty-five to sixty min incubation at room temperature, deferoxamine 1 mM) | reaction time (normal pooled plasma [2]; Three min incubation at room temperature, deferoxamine 1 mM) | R values vs plasma without FeCl3 addition (normal pooled plasma [3]) |
| --- | --- | --- | --- | --- | --- | --- | --- | --- |
| [C-]#[O+].[C-]#[O+].[C-]#[O+].[C-]#[O+].[C-]#[O+].[C-]#[O+].[Cl][Ru][Cl].[Cl][Ru][Cl] [CORM-2, tricarbonyldichlororuthenium (II) dimer] | 89% | 43% | – | – | – | – | – | – |
| [Cl][Fe]([Cl])[Cl] [FeCl3, ferric chloride] | – | 58% | 72% | 54% | 4.6 (4.4, 6.0)*† min | 5.0 (4.9, 5.1)*† min | 5.9 (5.8, 6.4)*† min | significantly smaller |
